This is an account of results in ChEMBL document CHEMBL1201862, “PubChem BioAssay data set” (2004).

Test systems include A498; EKVX; HCT-15; HOP-92; K562; KM12; M14; MOLT-4; NCI-H460; OVCAR-3; OVCAR-5; SF-295; SK-MEL-2; SK-MEL-5; SN12C; SW-620; UO-31; DU-145; MDA-MB-231; MDA-N.
Holding throughout (test): NCI tumour cell line growth inhibition, 48 h

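1) Cells in 96-well plates. 2) Compound, 48 h, 5 concentrations. 3) Linear interpolation between surrounding doses. 4) Unreached endpoint = highest concentration. GI50 is the concentration that inhibits growth by half.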 Active and inactive are the calls of the source. Rule as the data show it: active = GI50 up to about 1.1 µM and inactive = higher.

As for `CC1=C(/C=C/C(C)=C/C=C/C(C)=C/C=C/C=C(C)/C=C/C=C(C)/C=C/C2=C(C)C(=O)C(O)CC2(C)C)C(C)(C)CC(O)C1=O` (configuration not stated), the GI50 in the assay with A498 was > 100 µM (inactive); in the assay on EKVX, > 100 µM (inactive); with HCT-15 it was more than 100 µM; in the assay on HOP-92, > 100 µM (inactive); with K562, > 100 µM (inactive); in the assay with KM12, > 100 µM (inactive). The GI50 with M14, with MOLT-4, in the assay with NCI-H460, in the assay on OVCAR-3, with OVCAR-5 and in the assay on SF-295 was > 100 µM (inactive) each time. The GI50 in the assay on SK-MEL-2, with SK-MEL-5, with SN12C, in the assay on SW-620 and with UO-31 was > 100 µM (inactive) each time.

As for `c1ccc2c3nc(C4CCCC4)nc-3c(NC3CCCC3)[nH]c2c1`, the GI50 in the assay on A498 was 21.3 µM (inactive); with EKVX, 57.4 µM (inactive); with HCT-15, 8.49 µM; in the assay on HOP-92, 19.3 µM (inactive); with K562, 7.83 µM (inactive); in the assay with KM12, 7.08 µM (inactive). Besides, the GI50 was 2.98 µM (inactive) in the assay on M14; 6 µM (inactive) in the assay with MOLT-4; 8.04 µM (inactive) in the assay with NCI-H460; 12.5 µM (inactive) in the assay with OVCAR-3; 22.5 µM (inactive) with OVCAR-5; 16.8 µM (inactive) in the assay with SF-295. The GI50 was 14 µM (inactive) in the assay on SK-MEL-2; 6.98 µM (inactive) with SK-MEL-5; 32.7 µM (inactive) with SN12C; 5.43 µM (inactive) in the assay on SW-620; 21.6 µM (inactive) in the assay with UO-31.

Regarding `C=CCn1c(-c2cc(C(C)(C)C)c(O)c(C(C)(C)C)c2)cs/c1=N\C(P(=O)(O)O)P(=O)(O)O`, the GI50 with A498 was > 100 µM (inactive); in the assay with DU-145, > 100 µM (inactive); with EKVX, > 100 µM (inactive); in the assay with HCT-15, more than 100 µM; with HOP-92 it was > 100 µM (inactive); with K562, > 100 µM (inactive). For the same molecule, the GI50 was 83 µM (inactive) with KM12; > 100 µM (inactive) in the assay with M14; 35.2 µM (inactive) in the assay on MDA-MB-231; > 100 µM (inactive) in the assay on MOLT-4; > 100 µM (inactive) with NCI-H460; > 100 µM (inactive) with OVCAR-3. Further, the GI50 in the assay with OVCAR-5, in the assay on SF-295, with SK-MEL-2, in the assay with SN12C, in the assay on SW-620 and with UO-31 was > 100 µM (inactive) in each case.

In the case of `CCOC(=O)/N=c1\ss/c(=N\C(=S)N(C)C)n1-c1ccccc1`, the GI50 in the assay with A498 was 4.42 µM (inactive); in the assay on EKVX, > 100 µM (inactive); in the assay on HCT-15, more than 10 µM; in the assay with HOP-92 it was 25.8 µM (inactive); in the assay with K562, 19 µM (inactive); in the assay with KM12, 8.63 µM (inactive). The GI50 with M14 was > 10 µM (inactive); in the assay on MOLT-4, 4.27 µM (inactive); in the assay on NCI-H460, 2.7 µM (inactive); with OVCAR-3, 0.394 µM (active); with OVCAR-5, > 100 µM (inactive); in the assay on SF-295, 29.7 µM (inactive). The GI50 in the assay on SK-MEL-2 is 67.8 µM (inactive); in the assay with SK-MEL-5, 2.62 µM (inactive); in the assay on SN12C, > 10 µM (inactive); in the assay with SW-620 it was > 10 µM (inactive); in the assay on UO-31, > 10 µM (inactive).

With `O=C(CCc1nnc(S)[nH]1)NC12CC3CC(CC(C3)C1)C2`, the GI50 in the assay on A498 is > 100 µM (inactive); in the assay with EKVX it was > 100 µM (inactive); in the assay with HCT-15 it was more than 100 µM; in the assay with HOP-92, > 100 µM (inactive); in the assay with K562, > 100 µM (inactive); in the assay with KM12, > 100 µM (inactive). For the same molecule, the GI50 in the assay on M14, with NCI-H460, with OVCAR-3, with OVCAR-5, with SF-295 and in the assay on SK-MEL-2 was > 100 µM (inactive) each time. The GI50 in the assay on SK-MEL-5, in the assay with SN12C, with SW-620 and in the assay with UO-31 was > 100 µM (inactive) each time.

As to `CC1(C)OC(=O)C(=C2CCC(C(=O)Nc3cccc(C(F)(F)F)c3)N2)C(=O)O1` (configuration not stated), the GI50 is 66.1 µM (inactive) in the assay on A498; 50.6 µM (inactive) in the assay with EKVX; more than 100 µM in the assay on HCT-15; 56.2 µM (inactive) in the assay on HOP-92; 33.4 µM (inactive) in the assay with K562; 60.3 µM (inactive) in the assay on KM12. Besides, the GI50 was 64 µM (inactive) in the assay on M14; 26.7 µM (inactive) in the assay with MOLT-4; 62.5 µM (inactive) in the assay on NCI-H460; 82 µM (inactive) with OVCAR-3; > 100 µM (inactive) with OVCAR-5; 75.5 µM (inactive) in the assay with SF-295. Further, the GI50 was > 100 µM (inactive) in the assay with SK-MEL-2; 30.1 µM (inactive) in the assay on SK-MEL-5; > 100 µM (inactive) with SN12C; > 100 µM (inactive) in the assay on SW-620; > 100 µM (inactive) in the assay on UO-31.

On to `CCCC/C=C/C=C/C=C/CCCCCCCC(=O)OCC(COC(=O)CCCCCCC/C=C/C1C=CC(CCCC)C(C(=O)O)C1C(=O)O)OC(=O)CCCCCCC/C=C/C=C/C=C/CCCC.OCCNCO` (configuration not stated), for which the GI50 in the assay on A498 was 15.3 µM (inactive); in the assay with EKVX, 19 µM (inactive); in the assay with HCT-15 it was 16.2 µM; with HOP-92 it was 23.8 µM (inactive); in the assay on K562 it was 19.5 µM (inactive); in the assay on KM12, 18.7 µM (inactive). For the same molecule, the GI50 in the assay with M14 was 15.4 µM (inactive); in the assay on MOLT-4, 23.7 µM (inactive); with NCI-H460 it was 33.8 µM (inactive); in the assay on OVCAR-3 it was 17.9 µM (inactive); with OVCAR-5, 20.2 µM (inactive); in the assay on SF-295, 17.8 µM (inactive). For the same molecule, the GI50 in the assay with SK-MEL-2 was 15.8 µM (inactive); in the assay with SK-MEL-5 it was 17.4 µM (inactive); in the assay on SN12C, 20 µM (inactive); with SW-620, 4.05 µM (inactive); in the assay with UO-31 it was 20 µM (inactive).

Regarding `COc1cccc(C2SCC(=O)N2c2ccc(-c3ccc(-n4c(-c5ccccc5)nc5ccccc5c4=O)cc3)cc2)c1OC` (configuration not stated), the GI50 is > 100 µM (inactive) with A498; > 100 µM (inactive) in the assay with DU-145; > 100 µM (inactive) with EKVX; 52.7 µM with HCT-15; 55.8 µM (inactive) with HOP-92; 73.6 µM (inactive) in the assay on K562. The GI50 in the assay on KM12 is 50.4 µM (inactive); in the assay on M14, > 100 µM (inactive); in the assay on MDA-MB-231 it was > 100 µM (inactive); in the assay on MOLT-4, 60.8 µM (inactive); in the assay on NCI-H460 it was > 100 µM (inactive); with OVCAR-3 it was > 100 µM (inactive). Moreover, the GI50 is > 100 µM (inactive) in the assay on OVCAR-5; > 100 µM (inactive) in the assay on SF-295; > 100 µM (inactive) with SK-MEL-2; 30.1 µM (inactive) in the assay on SK-MEL-5; > 100 µM (inactive) in the assay with SN12C; > 10 µM (inactive) in the assay with SW-620. Besides, the GI50 with UO-31 is 32.8 µM (inactive).

For the molecule `c1cc(-c2cn[nH]c2)cc(-c2cn[nH]c2)c1`, the GI50 was 25.3 µM (inactive) in the assay on A498; 6.24 µM (inactive) with EKVX; 28.4 µM in the assay on HCT-15; > 100 µM (inactive) in the assay on HOP-92; 43 µM (inactive) with K562; 41 µM (inactive) in the assay on KM12. The GI50 with M14 was 44.6 µM (inactive); in the assay on MOLT-4 it was 33.1 µM (inactive); in the assay on NCI-H460, 41.4 µM (inactive); in the assay on OVCAR-3 it was 33.5 µM (inactive); with SF-295, 39.8 µM (inactive); in the assay on SK-MEL-2, 56 µM (inactive). Moreover, the GI50 was 32.6 µM (inactive) in the assay on SK-MEL-5, 39.4 µM (inactive) in the assay with SN12C, 30.4 µM (inactive) in the assay on SW-620 and 16 µM (inactive) in the assay on UO-31.

Turning to `CN(Cc1cnc2nc(N)nc(N)c2n1)c1ccc(C(=O)NC(CCS(=O)(=O)O)C(=O)O)cc1` (configuration not stated), the GI50 was > 100 µM (inactive) in the assay on A498; 1.31 µM (inactive) in the assay with EKVX; 0.25 µM in the assay on HCT-15; > 100 µM (inactive) in the assay with HOP-92; 0.661 µM (active) with KM12; 0.682 µM (active) in the assay with M14. The GI50 was > 100 µM (inactive) in the assay with MDA-MB-231; 0.35 µM (active) with MDA-N; 0.593 µM (active) in the assay on MOLT-4; 0.409 µM (active) with NCI-H460; 3.46 µM (inactive) in the assay on OVCAR-3; 0.144 µM (active) in the assay with OVCAR-5. Further, the GI50 was 0.681 µM (active) with SF-295; > 100 µM (inactive) in the assay on SK-MEL-2; 1.79 µM (inactive) with SK-MEL-5; 4.57 µM (inactive) in the assay on SN12C; 0.379 µM (active) with SW-620; 2.72 µM (inactive) with UO-31.

With `O=C1/C(=C/c2ccccc2Cl)COc2ccccc21`, the GI50 with A498 was 16.6 µM (inactive); in the assay on EKVX, 16 µM (inactive); with HOP-92, 15.1 µM (inactive); in the assay with K562, 3.93 µM (inactive); with KM12 it was 10.8 µM (inactive); in the assay with MOLT-4, 5.79 µM (inactive). Further, the GI50 was 20.5 µM (inactive) with NCI-H460; 18.2 µM (inactive) with OVCAR-3; 17.8 µM (inactive) in the assay with OVCAR-5; 19.1 µM (inactive) in the assay on SF-295; 15.5 µM (inactive) in the assay on SK-MEL-2; 5.73 µM (inactive) in the assay on SW-620. Besides, the GI50 in the assay on UO-31 is 15.1 µM (inactive).

Regarding `C[C@@]12CCC(=O)c3coc(c31)C(=O)c1cc3c(cc12)C(=O)C=CC3=O` [HELENAQUINONE], the GI50 in the assay with A498 was > 100 µM (inactive); in the assay with EKVX, 23.6 µM (inactive); in the assay with HCT-15, 17.3 µM; in the assay on HOP-92 it was 6.93 µM (inactive); in the assay on K562, > 22.2 µM (inactive); with KM12, 24.7 µM (inactive). Besides, the GI50 is 14.5 µM (inactive) in the assay on M14; 14.3 µM (inactive) in the assay with MOLT-4; 26.6 µM (inactive) in the assay with NCI-H460; 18.7 µM (inactive) in the assay with OVCAR-3; 20 µM (inactive) with OVCAR-5; 16.7 µM (inactive) in the assay on SF-295. For the same molecule, the GI50 in the assay on SK-MEL-2 is 23.9 µM (inactive); in the assay on SK-MEL-5, 15.1 µM (inactive); in the assay with SN12C, 16.6 µM (inactive); in the assay with SW-620, 19.1 µM (inactive); in the assay on UO-31 it was 17.2 µM (inactive).
